{"source": "ChEMBL document CHEMBL4373715", "about": "“Discovery and Biological Evaluations of Halogenated 2,4-Diphenyl Indeno[1,2-b]pyridinol Derivatives as Potent Topoisomerase IIα-Targeted Chemotherapeutic Agents for Breast Cancer” (J Med Chem, 2019)", "key": {"[1]": {"assay": "Stability in rat plasma assessed as parent compound remaining at 1 mM measured after 0.5 hrs by LC-MS/MS analysis", "format": "ADME, cell-free", "conditions": "read-out: Stability"}, "MDA-MB-231 [2]": {"tested_on": "MDA-MB-231", "assay": "Antitumor activity against human MDA-MB-231 cells expressing luciferase xenografted in mouse assessed as reduction in tumor weight at 12 mg/kg, iv administered once daily for 10 days measured 18 days post-last dose by bioluminescent imaging analysis", "format": "functional, organism-based"}, "[3]": {"assay": "Half life in ICR mouse liver microsomes at 1 mM in presence of NADPH by LC-MS/MS analysis", "format": "ADME, Microsome"}, "T47D [4]": {"tested_on": "T47D", "assay": "Induction of DNA damage in human T47D cells at 5 to 10 uM measured after 24 hrs by comet assay", "format": "functional, cell-based"}, "HeLa": {"tested_on": "HeLa", "assay": "Antiproliferative activity against human HeLa cells measured after 72 hrs by EZ-Cytox assay", "format": "functional, cell-based"}, "[5]": {"assay": "Protein binding in human plasma assessed as unbound fraction at 1 mM measured after 1 hr by LC-MS/MS analysis", "format": "ADME, cell-free"}, "[6]": {"assay": "Stability in rat plasma assessed as parent compound remaining at 1 mM measured after 4 hrs by LC-MS/MS analysis", "format": "ADME, cell-free", "conditions": "1000 µM"}, "[7]": {"assay": "Protein binding in mouse plasma assessed as unbound fraction at 1 mM measured after 1 hr by LC-MS/MS analysis", "format": "ADME, cell-free"}, "[8]": {"assay": "Stability in mouse plasma assessed as parent compound remaining at 1 mM measured after 4 hrs by LC-MS/MS analysis", "format": "ADME, cell-free", "conditions": "1000 µM"}, "[9]": {"assay": "Stability in human plasma assessed as parent compound remaining at 1 mM measured after 4 hrs by LC-MS/MS analysis", "format": "ADME, cell-free", "conditions": "read-out: Stability"}, "[10]": {"assay": "Toxicity in male ICR mouse assessed as physical abnormalities at 50 to 100 mg/kg, iv administered as single dose measured up to 7 days", "format": "organism-based", "conditions": "in vivo, 168 h"}, "[11]": {"assay": "Stability in human plasma assessed as parent compound remaining at 1 mM measured after 2 hrs by LC-MS/MS analysis", "format": "ADME, cell-free", "conditions": "read-out: Stability"}, "[12]": {"assay": "Toxicity in male ICR mouse assessed as mortality at 100 mg/kg, iv administered as single dose measured daily for 7 days (reference value: 0%)", "format": "organism-based", "conditions": "in vivo"}, "[13]": {"assay": "Protein binding in rat plasma assessed as unbound fraction at 1 mM measured after 1 hr by LC-MS/MS analysis", "format": "ADME, cell-free"}, "[14]": {"assay": "Half life in human liver microsomes at 1 mM in presence of NADPH by LC-MS/MS analysis", "format": "ADME, Microsome"}, "MDA-MB-231 [15]": {"tested_on": "MDA-MB-231", "assay": "Antitumor activity against human MDA-MB-231 cells expressing luciferase xenografted in mouse assessed as tumor growth inhibition at 12 mg/kg, iv administered once daily for 10 days measured on day 4 and 11 by bioluminescent imaging analysis", "format": "functional, organism-based"}, "[16]": {"assay": "Stability in rat plasma assessed as parent compound remaining at 1 mM measured after 2 hrs by LC-MS/MS analysis", "format": "ADME, cell-free", "conditions": "1000 µM"}, "[17]": {"assay": "Stability in mouse plasma assessed as parent compound remaining at 1 mM measured after 0.25 hrs by LC-MS/MS analysis", "format": "ADME, cell-free", "conditions": "read-out: Stability"}, "[18]": {"biological_target": "DNA topoisomerase 2-alpha (Homo sapiens) (UniProt P11388)", "sequence (P11388 whole entry)": "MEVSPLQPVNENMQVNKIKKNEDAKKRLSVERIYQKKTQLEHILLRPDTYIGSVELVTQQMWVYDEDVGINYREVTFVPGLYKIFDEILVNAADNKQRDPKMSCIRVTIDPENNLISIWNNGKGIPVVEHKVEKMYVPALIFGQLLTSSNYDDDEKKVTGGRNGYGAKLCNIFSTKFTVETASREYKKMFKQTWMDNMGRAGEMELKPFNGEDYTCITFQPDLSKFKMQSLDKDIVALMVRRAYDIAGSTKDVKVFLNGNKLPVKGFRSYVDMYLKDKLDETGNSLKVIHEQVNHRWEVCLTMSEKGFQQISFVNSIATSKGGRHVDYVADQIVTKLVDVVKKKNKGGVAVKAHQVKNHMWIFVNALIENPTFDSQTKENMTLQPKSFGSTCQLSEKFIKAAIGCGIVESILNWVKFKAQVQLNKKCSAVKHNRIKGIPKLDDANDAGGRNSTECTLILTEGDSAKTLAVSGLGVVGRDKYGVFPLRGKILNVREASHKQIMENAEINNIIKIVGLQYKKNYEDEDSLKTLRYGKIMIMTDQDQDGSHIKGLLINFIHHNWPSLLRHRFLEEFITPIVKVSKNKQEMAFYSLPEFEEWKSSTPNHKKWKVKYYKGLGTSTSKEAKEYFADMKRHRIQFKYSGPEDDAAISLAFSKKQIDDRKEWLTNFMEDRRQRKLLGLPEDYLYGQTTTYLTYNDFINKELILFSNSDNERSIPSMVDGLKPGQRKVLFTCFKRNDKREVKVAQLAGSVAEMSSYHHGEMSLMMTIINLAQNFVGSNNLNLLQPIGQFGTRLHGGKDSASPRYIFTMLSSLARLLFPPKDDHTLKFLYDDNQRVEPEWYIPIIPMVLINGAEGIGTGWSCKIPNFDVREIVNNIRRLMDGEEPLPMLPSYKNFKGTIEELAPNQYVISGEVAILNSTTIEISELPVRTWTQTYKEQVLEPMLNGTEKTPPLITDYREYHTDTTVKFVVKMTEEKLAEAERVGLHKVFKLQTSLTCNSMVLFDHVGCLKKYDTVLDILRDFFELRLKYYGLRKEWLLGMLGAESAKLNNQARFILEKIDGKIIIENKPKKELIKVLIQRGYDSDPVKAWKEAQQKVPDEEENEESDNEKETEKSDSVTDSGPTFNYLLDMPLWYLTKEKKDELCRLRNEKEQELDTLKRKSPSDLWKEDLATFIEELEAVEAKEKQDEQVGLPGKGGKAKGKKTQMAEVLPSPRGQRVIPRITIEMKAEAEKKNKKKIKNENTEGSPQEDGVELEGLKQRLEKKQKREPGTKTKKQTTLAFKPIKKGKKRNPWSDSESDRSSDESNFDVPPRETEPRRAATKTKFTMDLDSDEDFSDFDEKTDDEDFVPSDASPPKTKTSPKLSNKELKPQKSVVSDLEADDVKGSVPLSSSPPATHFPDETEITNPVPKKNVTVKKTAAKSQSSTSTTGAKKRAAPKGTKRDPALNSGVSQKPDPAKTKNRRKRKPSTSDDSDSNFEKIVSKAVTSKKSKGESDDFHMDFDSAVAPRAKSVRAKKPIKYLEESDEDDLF", "assay": "Inhibition of recombinant human topoisomerase 2alpha-mediated relaxation of supercoiled pBR322 DNA at 20 uM measured after 30 mins by ethidium bromide staining based agarose gel electrophoresis relative to control"}, "[19]": {"assay": "Stability in mouse plasma assessed as parent compound remaining at 1 mM measured after 2 hrs by LC-MS/MS analysis", "format": "ADME, cell-free", "conditions": "1000 µM"}, "[20]": {"assay": "Stability in mouse plasma assessed as parent compound remaining at 1 mM measured after 0.5 hrs by LC-MS/MS analysis", "format": "ADME, cell-free", "conditions": "1000 µM"}, "[21]": {"assay": "Toxicity in female ICR mouse assessed as mortality at 100 mg/kg, iv administered as single dose measured daily for 7 days (reference value: 0%)", "format": "organism-based", "conditions": "in vivo"}, "T47D [22]": {"tested_on": "T47D", "assay": "Induction of apoptosis in human T47D cells assessed as increase in Bax expression at 10 to 30 uM measured after 24 hrs by Western blot analysis", "format": "functional, cell-based"}, "T47D [23]": {"tested_on": "T47D", "assay": "Induction of apoptosis in human T47D cells assessed as increase in cleaved PARP expression at 10 to 30 uM measured after 24 hrs by Western blot analysis", "format": "functional, cell-based"}, "HCC70": {"tested_on": "HCC70", "assay": "Antiproliferative activity against human HCC70 cells measured after 72 hrs by Ez-cytox assay", "format": "functional, cell-based", "conditions": "HCC70, 72 h, read-out: IC50"}, "[24]": {"assay": "Half life in Sprague-Dawley rat liver microsomes at 1 mM in presence of NADPH by LC-MS/MS analysis", "format": "ADME, Microsome"}, "T47D [25]": {"tested_on": "T47D", "assay": "Induction of apoptosis in human T47D cells assessed as decrease in bcl-2 expression at 10 to 30 uM measured after 24 hrs by Western blot analysis", "format": "functional, cell-based"}, "[26]": {"assay": "Toxicity in female ICR mouse assessed as mortality at 50 mg/kg, iv administered as single dose measured daily for 7 days (reference value: 0%)", "format": "organism-based", "conditions": "in vivo"}, "[27]": {"assay": "Stability in mouse plasma assessed as parent compound remaining at 1 mM measured after 1 hr by LC-MS/MS analysis", "format": "ADME, cell-free", "conditions": "read-out: Stability"}, "[28]": {"biological_target": "DNA topoisomerase 2-alpha (Homo sapiens) (UniProt P11388)", "assay": "Poison activity at topoisomerase-2 alpha in human T47D cells assessed as stabilization of enzyme-DNA cleavage complex by measuring reduction in topo-2alpha level at 50 uM measured after 2 hrs by Western blot analysis", "format": "cell-based"}, "[29]": {"assay": "Stability in human plasma assessed as parent compound remaining at 1 mM measured after 0.5 hrs by LC-MS/MS analysis", "format": "ADME, cell-free", "conditions": "read-out: Stability"}, "Calf thymus DNA": {"tested_on": "Calf thymus DNA", "assay": "Inhibition of EtBr binding to calf thymus DNA up to 40 uM measured after 30 mins by fluorescence assay", "format": "nucleic-acid assay", "conditions": "Bos taurus"}, "[30]": {"biological_target": "DNA topoisomerase 2-alpha (Homo sapiens) (UniProt P11388)", "assay": "Poison activity at recombinant human topoisomerase-2 alpha assessed as stabilization of enzyme-DNA cleavage complex by measuring linear DNA formation at 500 uM using supercoiled pBR322 DNA as substrate after 60 mins by agarose gel electrophoresis method"}, "[31]": {"assay": "Toxicity in male ICR mouse assessed as change in body weight at 50 to 100 mg/kg, iv administered as single dose measured daily for 7 days", "format": "organism-based", "conditions": "in vivo, 168 h"}, "MDA-MB-231 [32]": {"tested_on": "MDA-MB-231", "assay": "Antiproliferative activity against human MDA-MB-231 cells measured after 72 hrs by Ez-cytox assay", "format": "functional, cell-based", "conditions": "MDA-MB-231, 72 h"}, "[33]": {"assay": "Stability in human plasma assessed as parent compound remaining at 1 mM measured after 1 hr by LC-MS/MS analysis", "format": "ADME, cell-free", "conditions": "read-out: Stability"}, "[34]": {"biological_target": "DNA topoisomerase 2-alpha (Homo sapiens) (UniProt P11388)", "assay": "Inhibition of recombinant human topoisomerase 2alpha-mediated relaxation of supercoiled pBR322 DNA at 100 uM measured after 30 mins by ethidium bromide staining based agarose gel electrophoresis relative to control"}, "[35]": {"assay": "Stability in rat plasma assessed as parent compound remaining at 1 mM measured immediately by LC-MS/MS analysis", "format": "ADME, cell-free", "conditions": "read-out: Stability"}, "[36]": {"assay": "Protein binding in rat plasma assessed as unbound fraction at 1 mM measured immediately by LC-MS/MS analysis", "format": "ADME, cell-free"}, "[37]": {"assay": "Stability in rat plasma assessed as parent compound remaining at 1 mM measured after 0.25 hrs by LC-MS/MS analysis", "format": "ADME, cell-free", "conditions": "read-out: Stability"}, "DU-145": {"tested_on": "DU-145", "assay": "Antiproliferative activity against human DU145 cells measured after 72 hrs by EZ-Cytox assay", "format": "functional, cell-based", "conditions": "DU-145, 72 h"}, "[38]": {"assay": "Toxicity in female ICR mouse assessed as physical abnormalities at 50 to 100 mg/kg, iv administered as single dose measured up to 7 days", "format": "organism-based", "conditions": "in vivo, 168 h"}, "[39]": {"assay": "Stability in mouse plasma assessed as parent compound remaining at 1 mM measured immediately by LC-MS/MS analysis", "format": "ADME, cell-free", "conditions": "read-out: Stability"}}, "note": "Active and inactive are the calls of the source. The calls are words filed in the database; no cut-off is given here.", "data": [{"smiles": "Oc1ccc(-c2cc(-c3ccccc3Cl)nc3c2Cc2c(O)cccc2-3)cc1", "values": [{"measurement": "remaining at 0.5 h", "setting": "[1]", "value": 99.8, "unit": "%"}, {"measurement": "Activity", "setting": "MDA-MB-231 [2]", "value": "Active"}, {"measurement": "half-life", "setting": "[3]", "value": 2.61, "unit": "h"}, {"measurement": "Activity", "setting": "T47D [4]", "value": "Active"}, {"measurement": "IC50", "setting": "HeLa", "value": 2460, "unit": "nM"}, {"measurement": "fraction unbound at 1 h", "setting": "[5]", "value": 0.959}, {"measurement": "Stability", "setting": "[6]", "value": 130.4, "unit": "%"}, {"measurement": "fraction unbound at 1 h", "setting": "[7]", "value": 0.999}, {"measurement": "Stability", "setting": "[8]", "value": 130.8, "unit": "%"}, {"measurement": "remaining at 4 h", "setting": "[9]", "value": 105, "unit": "%"}, {"measurement": "Activity", "setting": "[10]", "value": "Non-Toxic"}, {"measurement": "remaining at 2 h", "setting": "[11]", "value": 100, "unit": "%"}, {"measurement": "mortality at 168 h", "setting": "[12]", "value": 0, "unit": "%"}, {"measurement": "fraction unbound at 1 h", "setting": "[13]", "value": 1}, {"measurement": "half-life", "setting": "[14]", "value": 6.53, "unit": "h"}, {"measurement": "TGI", "setting": "MDA-MB-231 [15]", "value": "Active"}, {"measurement": "Stability", "setting": "[16]", "value": 119.6, "unit": "%"}, {"measurement": "remaining at 0.25 h", "setting": "[17]", "value": 109, "unit": "%"}, {"measurement": "inhibition", "setting": "[18]", "value": 78.9, "unit": "%"}, {"measurement": "Stability", "setting": "[19]", "value": 116.3, "unit": "%"}, {"measurement": "Stability", "setting": "[20]", "value": 117.1, "unit": "%"}, {"measurement": "mortality at 168 h", "setting": "[21]", "value": 0, "unit": "%"}, {"measurement": "Activity", "setting": "T47D [22]", "value": "Active"}, {"measurement": "Activity", "setting": "T47D [23]", "value": "Active"}, {"measurement": "IC50", "setting": "HCC70", "value": 2080, "unit": "nM"}, {"measurement": "half-life", "setting": "[24]", "value": 26, "unit": "h"}, {"measurement": "Activity", "setting": "T47D [25]", "value": "Active"}, {"measurement": "mortality at 168 h", "setting": "[26]", "value": 0, "unit": "%"}, {"measurement": "remaining at 1 h", "setting": "[27]", "value": 110, "unit": "%"}, {"measurement": "Activity", "setting": "[28]", "value": "Active"}, {"measurement": "remaining at 0.5 h", "setting": "[29]", "value": 99.3, "unit": "%"}, {"measurement": "inhibition", "setting": "Calf thymus DNA", "value": "inactive"}, {"measurement": "Activity", "setting": "[30]", "value": "Active"}, {"measurement": "Activity", "setting": "[31]", "value": "Non-Toxic"}, {"measurement": "IC50", "setting": "MDA-MB-231 [32]", "value": 2700, "unit": "nM"}, {"measurement": "remaining at 1 h", "setting": "[33]", "value": 104, "unit": "%"}, {"measurement": "inhibition", "setting": "[34]", "value": 100, "unit": "%"}, {"measurement": "remaining at 0 h", "setting": "[35]", "value": 100, "unit": "%"}, {"measurement": "fraction unbound at 0 h", "setting": "[36]", "value": 1}, {"measurement": "remaining at 0.25 h", "setting": "[37]", "value": 102, "unit": "%"}, {"measurement": "IC50", "setting": "DU-145", "value": 72, "unit": "nM"}, {"measurement": "Activity", "setting": "[38]", "value": "Non-Toxic"}, {"measurement": "remaining at 0 h", "setting": "[39]", "value": 100, "unit": "%"}]}]}
